Laboratory results reported in ChEMBL document CHEMBL1201862, “PubChem BioAssay data set” (2004).
One block for each compound: values may come before it. Activity calls are given as the source filed them.

Columns and labels:
Estrogen receptor = target: T1, Estrogen receptor (Homo sapiens, UniProt P03372);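 note: potency for inhibiting coactivator peptide recruitment to the receptor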
T1 sequence (P03372 whole entry): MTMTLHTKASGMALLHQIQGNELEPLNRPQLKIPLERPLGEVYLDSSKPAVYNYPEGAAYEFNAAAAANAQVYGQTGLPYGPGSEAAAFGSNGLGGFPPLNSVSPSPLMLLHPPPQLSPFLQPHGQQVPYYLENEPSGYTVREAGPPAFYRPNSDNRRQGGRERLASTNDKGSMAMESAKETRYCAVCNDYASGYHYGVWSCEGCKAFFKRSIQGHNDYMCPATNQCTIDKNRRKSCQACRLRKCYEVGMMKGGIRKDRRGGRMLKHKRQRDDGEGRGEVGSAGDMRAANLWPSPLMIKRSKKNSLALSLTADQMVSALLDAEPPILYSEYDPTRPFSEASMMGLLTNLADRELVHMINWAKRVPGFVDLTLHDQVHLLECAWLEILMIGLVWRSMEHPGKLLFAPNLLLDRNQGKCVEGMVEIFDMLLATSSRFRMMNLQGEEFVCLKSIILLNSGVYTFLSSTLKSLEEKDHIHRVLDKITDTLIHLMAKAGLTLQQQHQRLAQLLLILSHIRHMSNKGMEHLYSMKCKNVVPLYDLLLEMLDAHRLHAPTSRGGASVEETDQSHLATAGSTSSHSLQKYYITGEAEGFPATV

Estrogen receptor beta = Estrogen receptor beta (Homo sapiens, UniProt Q92731);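 note: recombinant ER-beta bound to coactivator SRC1 peptide in presence of estradiol agonist; inhibitors block coactivator peptide binding and lower the FRET signal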
Sequence of Estrogen receptor beta (Q92731 whole entry): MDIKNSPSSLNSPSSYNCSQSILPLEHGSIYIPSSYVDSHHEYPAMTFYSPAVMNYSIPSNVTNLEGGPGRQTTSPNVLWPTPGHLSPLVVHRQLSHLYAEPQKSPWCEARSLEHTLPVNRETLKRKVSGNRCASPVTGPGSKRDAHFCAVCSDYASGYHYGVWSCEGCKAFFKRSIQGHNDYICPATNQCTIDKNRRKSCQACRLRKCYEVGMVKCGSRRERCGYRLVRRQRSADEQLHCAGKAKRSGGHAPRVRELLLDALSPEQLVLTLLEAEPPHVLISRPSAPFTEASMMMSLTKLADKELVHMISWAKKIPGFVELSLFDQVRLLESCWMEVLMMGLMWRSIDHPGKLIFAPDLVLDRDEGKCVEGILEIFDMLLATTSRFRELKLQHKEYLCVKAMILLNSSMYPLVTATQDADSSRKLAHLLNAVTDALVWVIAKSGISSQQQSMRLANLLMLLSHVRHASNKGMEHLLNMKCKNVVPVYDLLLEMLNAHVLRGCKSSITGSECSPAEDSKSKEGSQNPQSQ

[1] = inhibitors of Vif binding to APOBEC3G peptide, primary screen, biochemical, TR-FRET, GST-Vif 1-94, biotin-A3G peptide, dose response retest (AID 1117319); format: functional;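 note: TR-FRET signal of purified GST-Vif binding a biotinylated A3G peptide; inhibitors lower the FRET signal by blocking Vif and A3G binding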
[2] = THP-1 cell cytotoxicity, dose response, cytotoxicity control for Vif-APOBEC3G degradation inhibitor project, THP-1 cells (AID 1117359); format: functional; details: Human immunodeficiency virus 1, THP-1
Fibrinogen beta chain [3] = target: T2, Fibrinogen beta chain (Homo sapiens, UniProt P02675); assay: Fluorescence polarization-based biochemical high throughput dose response assay to identify inhibitors that disrupt the binding of a cyclic peptide (Tn7) to the fibrin proteolytic product D-Dimer and fragment E complex [DD(E )].
T2 sequence (P02675 whole entry, the tested form may be a part): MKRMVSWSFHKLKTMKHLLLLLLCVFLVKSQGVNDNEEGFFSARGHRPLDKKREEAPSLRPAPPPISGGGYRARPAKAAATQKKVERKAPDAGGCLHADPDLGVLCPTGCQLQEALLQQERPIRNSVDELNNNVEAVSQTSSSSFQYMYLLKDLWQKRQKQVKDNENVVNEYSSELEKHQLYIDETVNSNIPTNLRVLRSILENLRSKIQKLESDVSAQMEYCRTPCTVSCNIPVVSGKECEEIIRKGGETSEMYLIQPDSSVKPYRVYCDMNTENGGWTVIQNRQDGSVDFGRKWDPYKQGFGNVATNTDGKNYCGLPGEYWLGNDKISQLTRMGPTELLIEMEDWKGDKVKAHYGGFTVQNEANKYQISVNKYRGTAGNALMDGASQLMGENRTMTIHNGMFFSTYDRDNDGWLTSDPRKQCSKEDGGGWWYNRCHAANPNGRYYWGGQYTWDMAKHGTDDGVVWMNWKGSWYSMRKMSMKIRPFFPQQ

Prothrombin = Prothrombin (Bos taurus, UniProt P00735); assay: thrombin inhibition, dose response, biochemical, fluorescence polarization, uHTS hits (AID 602369); format: functional
Cytochrome P450 2C19 = Cytochrome P450 2C19 (Homo sapiens, UniProt P33261); assay: Cytochrome panel assay with activity outcomes. Panel member name: p450-cyp2c19 Compounds with AC50 equal or less than 10 uM are considered active; format: functional; details: read-out: AC50
Fibrinogen beta chain [4] = target: T2, Fibrinogen beta chain; assay: Fluorescence polarization-based biochemical high throughput dose response assay to identify inhibitors that disrupt the binding of a cyclic peptide (Tn6) to the fibrin proteolytic product D-Dimer and fragment E complex [DD(E )].
[5] = target: T3, Voltage-gated N-type calcium channel alpha-1B subunit/Amyloid beta A4 precursor protein-binding family A member 1 (Homo sapiens, UniProt Q00975+Q02410); format: protein assay
T3 sequence (Q00975 whole entry): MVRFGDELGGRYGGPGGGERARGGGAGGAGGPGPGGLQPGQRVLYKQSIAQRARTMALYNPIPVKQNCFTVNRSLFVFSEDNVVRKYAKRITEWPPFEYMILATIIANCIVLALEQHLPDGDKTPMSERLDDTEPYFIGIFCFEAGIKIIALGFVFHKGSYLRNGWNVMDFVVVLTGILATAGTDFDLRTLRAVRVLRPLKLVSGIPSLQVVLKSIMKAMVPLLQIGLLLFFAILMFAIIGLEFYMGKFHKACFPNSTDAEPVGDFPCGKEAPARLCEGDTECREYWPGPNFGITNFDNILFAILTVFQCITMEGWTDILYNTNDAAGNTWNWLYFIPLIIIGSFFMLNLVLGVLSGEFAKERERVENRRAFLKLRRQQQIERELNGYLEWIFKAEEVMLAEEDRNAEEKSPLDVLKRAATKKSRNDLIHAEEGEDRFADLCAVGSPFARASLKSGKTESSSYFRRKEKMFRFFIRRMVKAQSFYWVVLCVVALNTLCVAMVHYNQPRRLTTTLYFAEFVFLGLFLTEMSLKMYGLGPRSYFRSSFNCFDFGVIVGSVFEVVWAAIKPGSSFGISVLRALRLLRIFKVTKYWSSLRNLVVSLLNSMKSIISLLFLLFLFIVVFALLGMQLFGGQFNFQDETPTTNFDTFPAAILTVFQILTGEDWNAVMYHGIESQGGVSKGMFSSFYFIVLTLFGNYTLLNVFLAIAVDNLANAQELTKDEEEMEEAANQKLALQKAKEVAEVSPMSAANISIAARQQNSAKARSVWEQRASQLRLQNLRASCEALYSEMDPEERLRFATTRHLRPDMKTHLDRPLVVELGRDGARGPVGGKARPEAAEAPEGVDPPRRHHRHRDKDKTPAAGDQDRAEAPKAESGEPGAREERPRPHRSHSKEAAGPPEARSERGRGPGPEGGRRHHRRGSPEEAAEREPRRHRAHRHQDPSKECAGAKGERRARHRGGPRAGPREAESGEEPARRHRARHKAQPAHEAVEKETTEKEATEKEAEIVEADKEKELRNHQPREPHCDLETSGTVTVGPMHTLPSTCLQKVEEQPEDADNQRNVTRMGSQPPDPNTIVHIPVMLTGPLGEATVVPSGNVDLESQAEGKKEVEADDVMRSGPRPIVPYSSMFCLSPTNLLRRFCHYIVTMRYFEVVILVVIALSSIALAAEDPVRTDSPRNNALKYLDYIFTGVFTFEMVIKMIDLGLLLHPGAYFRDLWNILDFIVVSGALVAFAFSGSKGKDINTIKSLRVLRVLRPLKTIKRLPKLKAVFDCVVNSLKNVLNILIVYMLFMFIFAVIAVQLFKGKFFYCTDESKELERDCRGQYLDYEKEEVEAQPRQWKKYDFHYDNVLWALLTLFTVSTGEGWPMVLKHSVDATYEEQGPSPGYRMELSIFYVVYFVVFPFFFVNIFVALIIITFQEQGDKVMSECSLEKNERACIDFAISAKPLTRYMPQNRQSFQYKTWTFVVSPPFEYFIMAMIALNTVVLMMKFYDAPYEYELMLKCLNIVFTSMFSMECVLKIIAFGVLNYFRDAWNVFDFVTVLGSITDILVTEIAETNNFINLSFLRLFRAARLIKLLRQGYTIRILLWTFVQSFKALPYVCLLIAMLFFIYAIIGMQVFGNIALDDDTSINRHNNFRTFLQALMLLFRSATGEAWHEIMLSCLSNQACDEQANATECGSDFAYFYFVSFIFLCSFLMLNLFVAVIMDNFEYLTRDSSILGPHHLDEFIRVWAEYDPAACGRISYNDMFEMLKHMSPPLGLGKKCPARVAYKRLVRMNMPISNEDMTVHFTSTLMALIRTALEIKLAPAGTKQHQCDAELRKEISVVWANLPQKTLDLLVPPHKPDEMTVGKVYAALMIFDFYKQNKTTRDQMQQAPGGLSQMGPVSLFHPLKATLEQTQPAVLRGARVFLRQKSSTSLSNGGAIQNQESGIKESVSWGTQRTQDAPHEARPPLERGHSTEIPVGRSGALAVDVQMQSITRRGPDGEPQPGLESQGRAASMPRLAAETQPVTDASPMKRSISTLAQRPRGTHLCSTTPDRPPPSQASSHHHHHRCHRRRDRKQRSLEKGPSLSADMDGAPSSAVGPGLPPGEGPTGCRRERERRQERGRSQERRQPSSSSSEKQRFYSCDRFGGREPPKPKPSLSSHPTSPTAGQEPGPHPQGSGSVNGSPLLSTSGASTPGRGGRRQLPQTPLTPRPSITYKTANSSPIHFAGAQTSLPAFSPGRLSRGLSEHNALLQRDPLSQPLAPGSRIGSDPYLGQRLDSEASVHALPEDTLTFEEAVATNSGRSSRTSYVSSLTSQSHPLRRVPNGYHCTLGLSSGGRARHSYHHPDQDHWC
T3 sequence (Q02410 whole entry): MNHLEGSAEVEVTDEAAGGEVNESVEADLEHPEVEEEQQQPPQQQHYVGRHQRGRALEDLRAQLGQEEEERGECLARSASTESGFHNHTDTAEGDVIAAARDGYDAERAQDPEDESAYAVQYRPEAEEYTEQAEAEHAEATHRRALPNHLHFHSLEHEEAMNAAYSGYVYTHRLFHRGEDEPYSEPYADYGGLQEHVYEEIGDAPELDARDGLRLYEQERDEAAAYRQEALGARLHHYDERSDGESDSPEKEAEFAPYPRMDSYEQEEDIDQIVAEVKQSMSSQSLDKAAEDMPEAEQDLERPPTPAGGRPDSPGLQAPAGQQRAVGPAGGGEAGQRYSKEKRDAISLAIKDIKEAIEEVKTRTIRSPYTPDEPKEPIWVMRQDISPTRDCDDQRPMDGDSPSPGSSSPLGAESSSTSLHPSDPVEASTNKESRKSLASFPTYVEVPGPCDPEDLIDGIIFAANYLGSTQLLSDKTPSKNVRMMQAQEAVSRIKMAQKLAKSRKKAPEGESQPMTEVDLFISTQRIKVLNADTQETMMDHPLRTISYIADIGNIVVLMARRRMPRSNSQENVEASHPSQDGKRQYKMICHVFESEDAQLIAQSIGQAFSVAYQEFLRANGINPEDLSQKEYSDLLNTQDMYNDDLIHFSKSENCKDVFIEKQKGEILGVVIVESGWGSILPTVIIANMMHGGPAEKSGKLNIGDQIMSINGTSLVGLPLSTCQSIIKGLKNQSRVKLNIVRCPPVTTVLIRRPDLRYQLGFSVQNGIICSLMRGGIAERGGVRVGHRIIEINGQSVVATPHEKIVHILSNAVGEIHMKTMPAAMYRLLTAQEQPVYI

[6] = target: T3, Voltage-gated N-type calcium channel alpha-1B subunit/Amyloid beta A4 precursor protein-binding family A member 1; format: protein assay; remark: listed apart in the source
[7] = target: 72 kDa type IV collagenase (Homo sapiens, UniProt P08253); assay: Dose Response validation of uHTS RPN11 inhibitor hits using a MMP-2 Fluorescence assay.; format: functional
Cytochrome P450 3A4 = Cytochrome P450 3A4 (Homo sapiens, UniProt P08684);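 note: CYP3A4 tested as one member of a cytochrome P450 panel screen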
Sequence of Cytochrome P450 3A4 (P08684 whole entry): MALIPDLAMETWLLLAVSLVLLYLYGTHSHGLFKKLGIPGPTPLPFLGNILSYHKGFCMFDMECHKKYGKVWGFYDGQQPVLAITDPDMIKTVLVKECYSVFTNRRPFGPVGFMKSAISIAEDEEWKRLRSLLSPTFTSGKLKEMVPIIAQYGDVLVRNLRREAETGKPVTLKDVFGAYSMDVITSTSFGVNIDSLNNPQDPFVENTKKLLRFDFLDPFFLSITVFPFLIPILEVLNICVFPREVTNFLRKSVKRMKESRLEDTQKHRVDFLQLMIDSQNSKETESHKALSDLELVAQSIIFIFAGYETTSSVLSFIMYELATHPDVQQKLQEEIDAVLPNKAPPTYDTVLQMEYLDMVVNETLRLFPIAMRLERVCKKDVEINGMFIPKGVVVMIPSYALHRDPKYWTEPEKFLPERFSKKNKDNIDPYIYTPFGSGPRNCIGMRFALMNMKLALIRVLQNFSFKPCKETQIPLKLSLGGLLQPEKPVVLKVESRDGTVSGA

[8] = target: 26S proteasome non-ATPase regulatory subunit 14 (Homo sapiens, UniProt O00487); assay: inhibition of proteasome subunit RPN11 – biochemical, fluorescence polarization, uHTS hits, confirmation (AID 602368); format: functional
Sequence of 26S proteasome non-ATPase regulatory subunit 14 (O00487 whole entry): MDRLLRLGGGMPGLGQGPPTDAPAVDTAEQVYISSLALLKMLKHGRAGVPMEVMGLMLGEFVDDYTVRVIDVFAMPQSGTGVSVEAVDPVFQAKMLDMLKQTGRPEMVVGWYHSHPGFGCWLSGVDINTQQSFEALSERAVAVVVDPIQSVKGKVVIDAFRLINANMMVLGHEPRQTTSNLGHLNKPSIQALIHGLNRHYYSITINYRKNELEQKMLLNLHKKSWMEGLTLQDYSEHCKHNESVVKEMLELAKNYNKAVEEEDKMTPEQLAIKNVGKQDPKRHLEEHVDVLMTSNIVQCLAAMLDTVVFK

[9] = PAX2 cell-based inhibition, dose response, selectivity assay for PAX8 inhibitor project, plate reader, dry powder samples (AID 743048); format: functional;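 note: HEK293 cells carrying a WT1 promoter luciferase reporter driven by expressed Pax2; potency is for inhibition of Pax2 driven reporter signal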
[10] = PAX5 activity inhibitors, dose response, selectivity assay for PAX8 inhibitor project, cell-based, plate reader, dry powder samples (AID 743047); format: functional;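 note: HEK293 cells carrying a Pax5 driven CD19 promoter luciferase reporter; potency of inhibitors that lower reporter luminescence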
[11] = NIH:OVCAR-3 ovarian cancer cell cytotoxicity, dose response, PAX8 inhibitor project, plate reader, dry powder samples (AID 743044); format: functional, cell-based
Paired box protein Pax-8 = Paired box protein Pax-8 (Homo sapiens, UniProt Q06710); assay: inhibitors of PAX8-driven TPO luciferase reporter, dose response, RMG-I cells, cherry-pick (AID 687027); format: functional, cell-based;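 note: luciferase reporter driven by Pax8 target thyroperoxidase promoter measured by SteadyGlo luminescence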
[12] = cytotoxicity dependent on PAX8, dose response, cell-based, plate reader, dry powder (AID 743049); format: functional
[13] = cytotoxicity in OV-90 ovarian cancer cells, dose response, PAX8 inhibitor project, cell-based, plate reader, dry powder, SA8 (AID 743149); format: functional
[14] = target: Heat shock protein HSP 90-alpha (Homo sapiens, UniProt P07900); assay: Luminescence-based dose response biochemical high throughput screening assay for inhibitors of the Heat Shock Protein 90 (HSP90). [Related pubchem assays: 1831 (Summary AID.), 1846 (Confirmation screen.), 1789 (Primary screen.)]
Protein skinhead-1 = target: T4, Protein skinhead-1 (Caenorhabditis elegans, UniProt P34707); format: functional
T4 sequence (P34707 whole entry): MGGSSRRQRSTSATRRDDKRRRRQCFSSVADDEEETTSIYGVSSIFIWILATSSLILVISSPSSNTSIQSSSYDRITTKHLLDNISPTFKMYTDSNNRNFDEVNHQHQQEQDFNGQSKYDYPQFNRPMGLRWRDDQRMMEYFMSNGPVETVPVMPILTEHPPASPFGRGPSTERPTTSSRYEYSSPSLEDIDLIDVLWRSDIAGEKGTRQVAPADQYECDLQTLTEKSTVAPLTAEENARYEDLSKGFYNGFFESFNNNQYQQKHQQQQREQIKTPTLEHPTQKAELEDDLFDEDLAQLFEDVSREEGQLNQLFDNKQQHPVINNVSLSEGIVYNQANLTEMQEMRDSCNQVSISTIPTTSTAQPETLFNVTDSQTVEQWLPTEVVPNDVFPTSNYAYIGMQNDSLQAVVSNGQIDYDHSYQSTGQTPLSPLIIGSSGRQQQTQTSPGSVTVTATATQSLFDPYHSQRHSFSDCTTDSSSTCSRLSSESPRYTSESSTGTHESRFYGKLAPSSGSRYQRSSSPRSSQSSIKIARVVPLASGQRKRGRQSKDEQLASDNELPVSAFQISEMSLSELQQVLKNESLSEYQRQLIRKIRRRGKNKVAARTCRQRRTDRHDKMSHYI

[15] = inhibitors of intracellular T. cruzi replication, confirmation, NIH3T3 host cells, beta-gal luminescence (AID 2044); format: functional, cell-based;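 note: intracellular parasites grown in NIH/3T3 mouse fibroblasts as host cells; luminescent beta-galactosidase reporter signal from transgenic T. cruzi replicating inside host cells; inhibitors lower the luminescence signal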
[16] = cytotoxicity toward NIH3T3 fibroblasts, dose response, counter-screen, cell-based, ATP luminescence, mouse fibroblasts (AID 2010); format: functional;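 note: cells exposed to compound for about 90 hours before reading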
[17] = Vero cell cytotoxicity, dose response, cytotoxicity control for Vif-APOBEC3G degradation inhibitor project, Vero cells (AID 1117358); format: functional; details: Human immunodeficiency virus 1, Vero
Protein Tat = Protein Tat (Human immunodeficiency virus type 1 group M subtype B (isolate HXB2)(HIV-1), UniProt P04608); format: functional;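 note: tat binding to TAR RNA read out by fluorescence polarization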
Vero = Vero cell cytotoxicity, cytotoxicity control for flavivirus capping enzyme inhibitors (AID 588742); format: functional; details: Chlorocebus sabaeus
[18] = Dose-response inhibition of insulin secretion in a rat insulinoma line at 5 mM glucose (AID 1117331); format: functional, cell-based; details: INS-1E
[19] = Concentration-dependent survival of SW480 colon cancer line, luminescence detection with CellTiter-Glo, half-maximal inhibitory concentration (AID 1117338); format: functional
[20] = cytotoxicity toward HCT116 cells – cell-based, CellTiter-Glo luminescence, IC50, dose response (AID 1117332); format: functional; details: HCT-116
[21] = SNU-C1 cell viability reduction, dose response, CellTiter-Glo luminescence (AID 1117323); format: functional, cell-based
[22] = RKO cell viability reduction, dose response, CellTiter-Glo luminescence (AID 1117322); format: functional
[23] = HCT116 cell viability decrease, GSK3B pretreatment – CellTiter-Glo, IC50, dose response (AID 1117339); format: functional; details: HCT-116
[24] = cytotoxicity toward HT-29 cells – cell-based, CellTiter-Glo luminescence, IC50, dose response (AID 1117330); format: functional
[25] = cytotoxicity toward Colo320 cells – cell-based, CellTiter-Glo luminescence, IC50, dose response (AID 1117334); format: functional; details: COLO 320
[26] = CellTiter-Glo luminescent dose response of DLD-1 viability loss (AID 1117352); format: functional

Structure (SMILES): CC(=O)N1CCOc2ccc(S(=O)(=O)N3CCN(c4cccc(C(F)(F)F)c4)CC3)cc21
AC50 [9]: 30.9 µM (active) | AC50 [10]: 45.3 µM (active) | AC50 [11]: 17.9 µM (active) | AC50 (Paired box protein Pax-8): 2.36 µM (active) | AC50 [12]: 94.5 µM (active) | AC50 [13]: 63 µM (active)

Structure (SMILES): CN(C)S(=O)(=O)c1ccc(NC(=O)N2CCN(c3cccc(C(F)(F)F)c3)CC2)cc1
EC50 [15]: 3.61 µM (active) | EC50 [16]: > 60 µM (not active) | CC50 [17]: > 40 µM (active)

Structure (SMILES): CN1CCN(CCC(=O)N2c3ccccc3Sc3ccc(C(F)(F)F)cc32)CC1 [FTORMETAZINE]
IC50 [18]: > 11.1 µM (inactive)

Structure (SMILES): COc1ccc2c(c1)c1c3n2CCN(C)C3=NCC1 [METRALINDOLE]
IC50 [19]: > 20 µM (inactive) | IC50 [20]: > 20 µM (inactive) | IC50 [21]: > 20 µM (inactive) | IC50 [22]: > 20 µM (inactive) | IC50 [23]: > 20 µM (inactive) | IC50 [24]: > 20 µM (inactive) | IC50 [25]: > 20 µM (inactive) | IC50 [26]: > 20 µM (inactive)

The next lines start with results.

IC50 (Estrogen receptor): > 50 µM (not active) | IC50 (Estrogen receptor beta): > 50 µM (not active) | IC50 [1]: > 53.2 µM (active)
Structure (SMILES): CSc1ccc(C2C(C#N)=C(N)Oc3c2ccc(=O)c2c(C)oc(C)c32)cc1 (stereo not given)
CC50 [2]: > 40 µM (active)

IC50 (Fibrinogen beta chain [3]): > 83.3 µM (inactive) | IC50 (Prothrombin): 33.4 µM (active) | AC50 (Cytochrome P450 2C19): 0.562 µM (inconclusive) | IC50 (Fibrinogen beta chain [4]): 14.3 µM (inactive) | IC50 [5]: > 50 µM (inactive) | IC50 [6]: 12.1 µM (active) | IC50 [7]: > 100 µM (inactive) | AC50 (Cytochrome P450 3A4): inconclusive | IC50 [8]: 6.71 µM (active)
Structure (SMILES): NS(=O)(=O)c1ccc(NS(=O)(=O)c2ccc(NC(=O)c3ccc(-c4ccccc4)cc3)cc2)cc1

IC50 [14]: 0.235 µM (active) | IC50 (Protein skinhead-1): 13.7 µM (active)
Structure (SMILES): Cc1oc(-c2ccc(-c3ccccc3)cc2)nc1CN(C)C1CCOC1 (stereo not given)

IC50 (Protein Tat): 22.5 µM (inconclusive)
Structure (SMILES): COC(=O)C1=C(O)/C(=C\c2ccc(CNC(=O)C(=O)Nc3ccc(C)cc3)o2)N=C1C
CC50 (Vero): 19 µM (active)
